This passage reports IC50 and ΔTm results from patent US20250042895A1, “INHIBITORS OF ULK1 AND METHODS OF USE” (H. LEE MOFFITT CANCER CENTER AND RESEARCH INSTITUTE, INC., priority 2021, published 2025).

Usually IC50 stands for the concentration at which inhibition is half-maximal. Low values mean greater potency in that assay, high ones weaker potency in that assay. A word on the ΔTm: it is the change in melting temperature against a reference sample.

One test addresses T1, GST-ULK1 (Homo sapiens, UniProt O75385).
T1 sequence (O75385 1-1050): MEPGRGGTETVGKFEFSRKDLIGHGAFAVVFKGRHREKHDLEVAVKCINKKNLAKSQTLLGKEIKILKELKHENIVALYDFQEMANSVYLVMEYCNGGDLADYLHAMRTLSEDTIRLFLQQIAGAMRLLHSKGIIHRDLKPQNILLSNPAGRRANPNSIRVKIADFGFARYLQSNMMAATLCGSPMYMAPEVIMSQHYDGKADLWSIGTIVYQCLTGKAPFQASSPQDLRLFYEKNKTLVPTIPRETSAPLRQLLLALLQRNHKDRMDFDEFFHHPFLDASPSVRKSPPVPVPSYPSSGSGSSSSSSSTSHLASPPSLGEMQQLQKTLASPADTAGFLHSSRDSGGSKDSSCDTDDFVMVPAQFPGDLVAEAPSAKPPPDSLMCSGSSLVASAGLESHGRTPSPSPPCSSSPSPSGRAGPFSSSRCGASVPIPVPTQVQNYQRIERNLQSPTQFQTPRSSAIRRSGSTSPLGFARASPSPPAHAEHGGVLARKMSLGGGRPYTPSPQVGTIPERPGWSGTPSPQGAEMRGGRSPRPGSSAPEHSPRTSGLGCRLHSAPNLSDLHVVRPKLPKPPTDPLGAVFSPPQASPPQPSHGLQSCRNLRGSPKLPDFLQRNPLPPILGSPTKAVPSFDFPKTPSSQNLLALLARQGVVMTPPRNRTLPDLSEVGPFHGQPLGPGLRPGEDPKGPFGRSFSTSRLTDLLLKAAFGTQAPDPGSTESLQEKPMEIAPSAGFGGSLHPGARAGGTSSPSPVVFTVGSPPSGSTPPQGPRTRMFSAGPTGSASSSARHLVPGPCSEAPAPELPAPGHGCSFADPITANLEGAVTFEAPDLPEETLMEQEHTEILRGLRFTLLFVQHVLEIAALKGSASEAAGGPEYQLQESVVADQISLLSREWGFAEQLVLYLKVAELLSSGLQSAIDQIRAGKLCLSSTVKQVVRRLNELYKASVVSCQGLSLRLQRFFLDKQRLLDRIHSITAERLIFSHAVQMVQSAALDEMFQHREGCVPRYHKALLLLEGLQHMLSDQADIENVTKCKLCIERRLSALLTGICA
Put plainly: LanthaScreen ULK1 inhibitor assay. It counts as biochemical. To be noted: 5 nM GST-ULK1, 30 nM tracer, 20 μM ATP, 1 hr room temperature.

Another test deals with T2, ULK1 kinase domain (Homo sapiens, UniProt O75385).
T2 construct: The protein expression construct of ULK1 kinase domain (1-283) was cloned; 6His-Sumo (N, cleaved yes); made in house; host or cells: E. coli BL21 star, co-expressed with lambda phosphatase
T2 sequence (O75385 1-283): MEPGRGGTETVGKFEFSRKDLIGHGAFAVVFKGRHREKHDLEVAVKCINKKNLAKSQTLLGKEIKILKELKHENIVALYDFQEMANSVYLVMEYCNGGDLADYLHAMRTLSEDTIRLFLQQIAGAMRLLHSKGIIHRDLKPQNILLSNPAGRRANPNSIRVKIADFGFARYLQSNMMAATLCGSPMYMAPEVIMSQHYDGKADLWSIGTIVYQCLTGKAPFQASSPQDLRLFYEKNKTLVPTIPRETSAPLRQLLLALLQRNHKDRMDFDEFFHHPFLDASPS
Put plainly: Differential scanning fluorimetry (thermal shift). It counts as binding. The following applies: 2 μM ULK1 kinase domain, 50 μM compound, vs DMSO reference. (In general: In DSF a fluorescence change marks the thermal transition of the protein.)

The target of another test is T3, ULK1 kinase (Homo sapiens, UniProt O75385).
T3 construct: purchased Reaction Biology
T3 sequence (O75385 1-1050): T1 sequence (O75385 1-1050)
Put plainly: Radiometric HotSpot kinase assay (Reaction Biology). It counts as biochemical. The following applies: activity-based ULK1 kinase assay.

Structures are written as SMILES.

`O=C(NC(CO)CO)c1cccc(-c2cnc3[nH]c(-c4ccc(F)cc4)cc3c2)c1` [Compound 49, N-(1,3-Dihydroxypropan-2-yl)-3-(2-(4-fluorophenyl)-1H-pyrrolo[2,3-b]pyridin-5-yl)benzamide]: the half-maximal inhibitory concentration (IC50) was 543 nM against GST-ULK1 and 341 nM on ULK1 kinase. Also, the ΔTm at 50 µM at ULK1 kinase domain turned out to be 5.11 °C.

On GST-ULK1, `FC1(F)CN(c2c(C(F)(F)F)cnc3[nH]c(C4=CCNCC4)cc23)C1` [Compound 115] yielded a half-inhibitory concentration (IC50) of 81 nM.

Turning to `CN1CCC(c2cc3c(NCCN4CCOCC4)c(C(F)(F)F)cnc3[nH]2)CC1` [Compound 95, 2-(1-methylpiperidin-4-yl)-N-(2-morpholinoethyl)-5-(trifluoromethyl)-1H-pyrrolo[2,3-b]pyridin-4-amine], the results for the half-inhibitory concentration (IC50) against GST-ULK1 and against ULK1 kinase were 917 nM and 758 nM, respectively. In addition, the shift in melting temperature (ΔTm) at 50 µM on ULK1 kinase domain came out at 0.49 °C.

In the case of `FC1(F)CCN(c2c(C(F)(F)F)cnc3[nH]c(C4CCOCC4)cc23)CC1` [Compound 92, 4-(4,4-difluoropiperidin-1-yl)-2-(tetrahydro-2H-pyran-4-yl)-5-(trifluoromethyl)-1H-pyrrolo[2,3-b]pyridine], the thermal shift (ΔTm) at 50 µM on ULK1 kinase domain is 0.88 °C.

For the molecule `O=C(c1cc(-c2cnc3[nH]c(-c4ccc(F)cc4)cc3c2)cs1)N1CCC(NC(=O)C(F)(F)F)C1` (stereo not shown) [Compound 24, 2,2,2-Frifluoro-N-(1-(4-(2-(4-fluorophenyl)-1H-pyrrolo[2,3-b]pyridin-5-yl)thiophene-2-carbonyl)pyrrolidin-3-yl)acetamide], on ULK1 kinase domain, the ΔTm at 50 µM came out at 0.4 °C.

For `FC(F)(F)c1cnc2[nH]c(C3=CCOCC3)cc2c1NCCCN1CCCC1` [Compound 91, 2-(3,6-dihydro-2H-pyran-4-yl)-N-(3-(pyrrolidin-1-yl)propyl)-5-(trifluoromethyl)-1H-pyrrolo[2,3-b]pyridin-4-amine], the half-maximal inhibitory concentration (IC50) stood at 167 nM against GST-ULK1 and 110 nM at ULK1 kinase. The shift in melting temperature (ΔTm) at 50 µM at ULK1 kinase domain amounted to 9.77 °C.

Take `FC(F)(F)c1cnc2[nH]c(C3=CCCNC3)cc2c1NCCCN1CCCC1` [Compound 119]: at GST-ULK1, it took 1600 nM to reach half-maximal inhibition (IC50).

In the case of `CC(C)(C)OC(=O)N1CCC=C(c2cc3cc(-c4csc(C(=O)NCC(F)(F)F)c4)cnc3[nH]2)C1` [Compound 41, tert-Butyl 5-(5-(5-((2,2,2-trifluoroethyl)carbamoyl)thiophen-3-yl)-1H-pyrrolo[2,3-b]-pyridin-2-yl)-3,6-dihydropyridine-1(2H)-carboxylate], the concentration for half-maximal inhibition (IC50) against GST-ULK1 amounted to 75 nM; against ULK1 kinase, 333 nM. For the same molecule, the ΔTm at 50 µM at ULK1 kinase domain stood at 9.89 °C.

In the case of `CC(C)(C)OC(=O)N1CCC(c2cc3cc(-c4csc(C(=O)NCC(F)(F)F)c4)cnc3[nH]2)CC1` [Compound 40, tert-Butyl 4-(5-(5-((2,2,2-trifluoroethyl)carbamoyl)thiophen-3-yl)-1H-pyrrolo[2,3-b]-pyridin-2-yl)piperidine-1-carboxylate], the ΔTm at 50 µM on ULK1 kinase domain amounted to 1.63 °C.

As for `FC(F)(F)c1cnc2[nH]c(C3=CCOCC3)cc2c1NC1CCNC1` (stereo not shown) [Compound 84, 2-(3,6-dihydro-2H-pyran-4-yl)-N-(pyrrolidin-3-yl)-5-(trifluoromethyl)-1H-pyrrolo[2,3-b]pyridin-4-amine], the IC50 stood at 412 nM on GST-ULK1 and 549 nM on ULK1 kinase. In addition, the ΔTm at 50 µM at ULK1 kinase domain came to 7.13 °C.

At GST-ULK1, `FC(F)(F)c1cnc2[nH]c(C3=CCNC3)cc2c1NCCCN1CCCC1` [Compound 120] displayed an IC50 of 1210 nM.

For the molecule `FC1(F)CN(c2c(C(F)(F)F)cnc3[nH]c(C4=CCOCC4)cc23)C1` [Compound 86, 4-(3,3-Difluoroazetidin-1-yl)-2-(3,6-dihydro-2H-pyran-4-yl)-5-(trifluoromethyl)-1H-pyrrolo[2,3-b]pyridine], the figures for the IC50 at GST-ULK1 and against ULK1 kinase were 172 nM and 56 nM, respectively. At ULK1 kinase domain, the thermal shift (ΔTm) at 50 µM was 6.82 °C.

In the case of `O=C(c1nc(-c2cnc3[nH]c(-c4ccc(F)cc4)cc3c2)cs1)N1CC(F)C1` [Compound 74, (3-fluoroazetidin-1-yl)(4-(2-(4-fluorophenyl)-1H-pyrrolo[2,3-b]-pyridin-5-yl)thiazol-2-yl)methanone], the figures for the IC50 against GST-ULK1 and against ULK1 kinase were 665 nM and 644 nM, respectively. Besides, the thermal shift (ΔTm) at 50 µM on ULK1 kinase domain was 1.87 °C.

In the case of `FC1(F)CN(c2c(C(F)(F)F)cnc3[nH]c(C4CCOCC4)cc23)C1` [Compound 85, 4-(3,3-difluoroazetidin-1-yl)-2-(tetrahydro-2H-pyran-4-yl)-5-(trifluoromethyl)-1H-pyrrolo[2,3-b]pyridine], the ΔTm at 50 µM on ULK1 kinase domain is 0.54 °C.

`CC(C)(C)OC(=O)N1CCCC(c2cc3cc(-c4csc(C(=O)NCC(F)(F)F)c4)cnc3[nH]2)C1` (stereo not shown) [Compound 43, tert-Butyl 3-(5-(5-((2,2,2-trifluoroethyl)carbamoyl)thiophen-3-yl)-1H-pyrrolo[2,3-b]-pyridin-2-yl)piperidine-1-carboxylate]: the ΔTm at 50 µM at ULK1 kinase domain was found to be 4.2 °C.

With `FC(F)(F)c1cnc2[nH]c(C3=CCCNC3)cc2c1NCCN1CCOCC1` [Compound 116], the IC50 at GST-ULK1 is 201 nM.

In the case of `O=C(NC[C@@H](O)CO)c1cccc(-c2cnc3[nH]c(-c4ccc(F)cc4)cc3c2)c1` [Compound 48, (R)—N-(2,3-Dihydroxypropyl)-3-(2-(4-fluorophenyl)-1H-pyrrolo[2,3-b]pyridin-5-yl)benzamide], the concentration for half-maximal inhibition (IC50) at GST-ULK1 turned out to be 475 nM; at ULK1 kinase, 261 nM. Further, the ΔTm at 50 µM on ULK1 kinase domain was 4.52 °C.

For `O=C(NCC1(O)CC1)c1cc(-c2cnc3[nH]c(C4=CCNC4)cc3c2)cs1` [Compound 109], at GST-ULK1, inhibition was half-maximal at 80 nM (IC50).

Consider `CN1CCC(c2cc3c(N4CC(F)(F)C4)c(C(F)(F)F)cnc3[nH]2)CC1` [Compound 96, 4-(3,3-difluoroazetidin-1-yl)-2-(1-methylpiperidin-4-yl)-5-(trifluoromethyl)-1H-pyrrolo[2,3-b]pyridine], for which the shift in melting temperature (ΔTm) at 50 µM on ULK1 kinase domain was 3.09 °C.

Take `FC(F)(F)c1cnc2[nH]c(C3=CCNCC3)cc2c1NCCCN1CCCC1` [Compound 121]: inhibition against GST-ULK1 was half-maximal at 320 nM (IC50).

As for `FC(F)(F)c1cnc2[nH]c(C3=CCCNC3)cc2c1NCCN1CCNCC1` [Compound 112], on GST-ULK1, it took 8 nM to reach half-maximal inhibition (IC50).

`FC1(F)CN(c2c(C(F)(F)F)cnc3[nH]c(C4=CCCNC4)cc23)C1` [Compound 141] gave an IC50 on GST-ULK1 of 884 nM.

For the molecule `CS(=O)(=O)NC1CCN(C(=O)c2cc(-c3cnc4[nH]c(-c5ccc(F)cc5)cc4c3)cs2)C1` (stereo not shown) [Compound 9, N-(1-(4-(2-(4-Fluorophenyl)-1H-pyrrolo[2,3-b]pyridin-5-yl)thiophene-2-carbonyl)pyrrolidin-3-yl)methanesulfonamide], at ULK1 kinase domain, the thermal shift (ΔTm) at 50 µM stood at 1.29 °C.

Turning to `CN1CCC(c2cc3c(NCCCN4CCCC4)c(C(F)(F)F)cnc3[nH]2)CC1` [Compound 94, 2-(1-methylpiperidin-4-yl)-N-(3-(pyrrolidin-1-yl)propyl)-5-(trifluoromethyl)-1H-pyrrolo[2,3-b]pyridin-4-amine], the ΔTm at 50 µM at ULK1 kinase domain amounted to 0.76 °C.

On GST-ULK1, `FC(F)(F)c1cnc2[nH]c(C3=CCNCC3)cc2c1NCCN1CCNCC1` [Compound 114] came in with an IC50 of 14 nM.

Consider `FC(F)(F)c1cnc2[nH]c(C3=CCNC3)cc2c1NCCN1CCNCC1` [Compound 113], for which the IC50 against GST-ULK1 came to 63 nM.

Take `FC(F)(F)c1cnc2[nH]c(C3=CCNC3)cc2c1NCCN1CCOCC1` [Compound 117]: at GST-ULK1, the IC50 was 85 nM.

As for `FC(F)(F)c1cnc2[nH]c(C3=CCNCC3)cc2c1NCCN1CCOCC1` [Compound 118], the IC50 against GST-ULK1 worked out at 126 nM.

`O=C(NCC(F)(F)F)c1cc(-c2cnc3[nH]c(C4=CCN(C5CCC(C(=O)O)CC5)CC4)cc3c2)cs1` (stereo not shown) [compound 142] had an IC50 against GST-ULK1 of 88 nM.

Consider `O=C(c1nc(-c2cnc3[nH]c(-c4ccc(F)cc4)cc3c2)cs1)N1CC(F)(F)C1` [Compound 75, (3,3-difluoroazetidin-1-yl)(4-(2-(4-fluorophenyl)-1H-pyrrolo[2,3-b]-pyridin-5-yl)thiazol-2-yl)-methanone], for which, at ULK1 kinase domain, the ΔTm at 50 µM was determined as 3 °C.
